Reference: patent publication US7381745B2, “Ligands for metabotropic glutamate receptors and inhibitors of NAALADase” (Georgetown University, priority 1999, dated 2008)
“And” between values parts separate entries of the source, which are not always exact repeats. Identical values can stand only once. Like-named read-outs stand apart in the source and are kept apart here. Values belong to the compound of their own block, whether it stands above or below them. Residues, ends and D or L forms follow the SMILES beside them.

What was measured:
[1] = molecular target: T1, mGluR3 (Rattus norvegicus, UniProt P31422); experiment: mGluR3 receptor activation (cell lines transfected with mGluRs); assay type: cell-based
T1 construct: expressed in transfected cells
Description: Our studies began from the dipeptide N-acetyl-L-aspartate-L-glutamate (NAAG), a dipeptide that is quite abundant in the brain, and which is believed to act as a transmitter or co-transmitter in the central nervous system, much like glutamate itself. […] 69, 174(1997)]. Recently, a brain enzyme was identified that is specific for the cleavage of N-acetylated α-linked acidic dipeptides, and as a result this enzyme was named NAALADase [J. Biol. Chem., 1987, 262, 14498].

[2] = system: NMDA toxicity in cortical neuronal cells; experiment: NMDA toxicity model C: cortical neurons given medium from drug-treated glial cells, LDH release; assay type: cell-based, mice; details: for Neuroprotection against NMDA toxicity: model C protocol, 1 μM, LDH at 24 hours
Procedure: (§1) We have tested the validity of these statements using three models of NMDA toxicity in cultures of cortical neurons prepared from fetal mice. The first model (A) consists of using a culture containing neurons without glial cells. NMDA (75 μM) is applied for 10 min without or with the tested compound. Then the culture medium is replaced and cells are left for 24 hours to develop toxicity. The second model (B) involves the use of mice cortical neurons which are seeded on a layer of confluent glial cells (mostly astrocytes) prepared from cerebral cortex of newborn mice. The incubations are identical as in model A. The third model (C) separates the neuronal and glial cultures. Glial cultures are treated with the tested neuroprotective compound in order to induce the release of protective factors into the medium. In parallel, cultures of cortical neurons (without glia) are treated for 10 min with NMDA (20 μM). Then NMDA is washed out and the neurons are treated with the medium collected from the treated glial cells. In all cases toxicity is assessed 24 hours after NMDA treatment by measurements of lactate dehydrogenase (LDH) activity accumulated in the medium during this period of time.
This was done using a published protocol in which cultures of cortical glial cells are first treated with the test compound in order to induce the release of protective factors into the medium. In parallel, cultures of cortical neurons (without glia) are exposed for 10 min to the excitotoxic action of NMDA (20 μM). The NMDA is removed by washing, and the neurons are treated with the medium collected from the treated glial cells. Toxicity is then assessed 24 hours after NMDA treatment by the measurement of lactate dehydrogenase (LDH) activity, which serves as a marker for dying cells. […] Among the potent GCPII inhibitors tested, three compounds [HO2C(CH2)2CH(CO2H)CH2]2P(O)(OH), (S)-Glu-C(O)-(S)Glu, and (S)-Asp-C(O)-(S)Glu produced at 1 μM a similarly modest neuroprotection ranging from 21% to 31%. In contrast, the two Cys-containing compounds, (t-Bu)Cys-C(O)-(S)-Glu and (S)-Cys-C(O)-(S)-Glu, produced 69% and 50% neuroprotection, respectively. While the exact mechanism of this neuroprotective effect cannot be explained based entirely upon GCPII inhibition, these exciting results warrant further study in other models of in vitro toxicity, including the assessment of the compounds' effects in vivo.

[3] = system: transient middle cerebral artery occlusion; details: cited from earlier work
[4] = system: NMDA-induced cell death; details: other in vitro models; cited from earlier work
[5] = molecular target: NAALADase (Rattus norvegicus, UniProt P70627); experiment: NAALADase inhibition; assay type: biochemical; details: read-out: IC50 as NAALADase inhibitor
[6] = system: NMDA toxicity in mixed cultures of cortical neuronal-glial cells; experiment: NMDA toxicity model B: mixed cortical neuronal-glial cultures, LDH release; assay type: cell-based, mice
Procedure: as §1

[7] = molecular target: T2, rat GCPII (Rattus norvegicus, UniProt P70627); details: cited from earlier work; for IC50: read-out: IC50 against GCPII
T2 construct: expressed in transfected cells

[8] = molecular target: T1, mGluR3; details: cited from earlier work
[9] = molecular target: T2, rat GCPII; experiment: Inhibition of rat GCPII stably expressed in CHO cells; assay type: biochemical; details: for IC50: read-out: IC50 against expressed rat GCPII
[10] = system: NMDA toxicity in cultures of cortical neurons; experiment: NMDA toxicity model A: cortical neurons without glial cells, LDH release; assay type: cell-based, mice; details: 10 μM, NMDA 75 μM
Procedure: as §1

[11] = system: U-87 glioblastoma multiforme cells; experiment: Antiangiogenesis in s.c. glioblastoma xenografts (vWF staining); assay type: in vivo; details: 100 μM, 0.1 mL once daily into base of xenograft, harvested at 7 days
Procedure: Implanted xenografts were formed by s.c. inoculation with 2×10^6 U-87 glioblastoma multiforme cells mixed with 0.5 mg Matrigel. FN11 was dissolved in PBS to a concentration of either 10 or 100 μM, and injections (0.1 mL) were made once daily into the base of the s.c. implanted xenografts. The starting volumes of the tumors were approximately 250 mm^3. The results from this protocol are depicted in FIG. 15.
Control tumors and tumors grown under the conditions described in Example 21 were harvested at the end of 7 days, fixed in formalin and embedded in paraffin for sectioning. Tissue was stained immunohistochemically for von Willebrand's factor (vWF) to obtain a measure of vascularization. FIGS. 13 and 14 present the results of this protocol for the tumor treated with FN11 at 100 μM. FIG. 13 was taken at low magnification (100×), whereas FIG. 14 was taken at high magnification (400×).

T2 sequence (P70627 whole entry): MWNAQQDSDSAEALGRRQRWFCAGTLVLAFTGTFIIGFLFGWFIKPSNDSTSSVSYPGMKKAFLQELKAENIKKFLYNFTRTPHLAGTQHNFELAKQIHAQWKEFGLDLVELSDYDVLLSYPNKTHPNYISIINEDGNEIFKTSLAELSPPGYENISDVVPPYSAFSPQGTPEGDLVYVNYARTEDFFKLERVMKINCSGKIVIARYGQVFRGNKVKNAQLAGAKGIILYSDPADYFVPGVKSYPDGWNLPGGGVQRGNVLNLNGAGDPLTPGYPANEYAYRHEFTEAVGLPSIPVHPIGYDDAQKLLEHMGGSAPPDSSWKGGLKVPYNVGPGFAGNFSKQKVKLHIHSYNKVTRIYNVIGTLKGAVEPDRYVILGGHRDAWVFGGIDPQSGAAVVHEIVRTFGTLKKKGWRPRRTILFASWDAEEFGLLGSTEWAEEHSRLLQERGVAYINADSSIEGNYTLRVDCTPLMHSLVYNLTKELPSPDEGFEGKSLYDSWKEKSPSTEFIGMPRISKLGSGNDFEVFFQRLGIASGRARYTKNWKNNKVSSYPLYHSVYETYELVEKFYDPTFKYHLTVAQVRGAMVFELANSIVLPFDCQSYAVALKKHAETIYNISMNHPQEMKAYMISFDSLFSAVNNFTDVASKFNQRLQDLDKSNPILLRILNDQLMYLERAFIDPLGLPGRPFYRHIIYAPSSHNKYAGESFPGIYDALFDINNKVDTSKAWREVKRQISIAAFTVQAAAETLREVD
T1 sequence (P31422 23-879): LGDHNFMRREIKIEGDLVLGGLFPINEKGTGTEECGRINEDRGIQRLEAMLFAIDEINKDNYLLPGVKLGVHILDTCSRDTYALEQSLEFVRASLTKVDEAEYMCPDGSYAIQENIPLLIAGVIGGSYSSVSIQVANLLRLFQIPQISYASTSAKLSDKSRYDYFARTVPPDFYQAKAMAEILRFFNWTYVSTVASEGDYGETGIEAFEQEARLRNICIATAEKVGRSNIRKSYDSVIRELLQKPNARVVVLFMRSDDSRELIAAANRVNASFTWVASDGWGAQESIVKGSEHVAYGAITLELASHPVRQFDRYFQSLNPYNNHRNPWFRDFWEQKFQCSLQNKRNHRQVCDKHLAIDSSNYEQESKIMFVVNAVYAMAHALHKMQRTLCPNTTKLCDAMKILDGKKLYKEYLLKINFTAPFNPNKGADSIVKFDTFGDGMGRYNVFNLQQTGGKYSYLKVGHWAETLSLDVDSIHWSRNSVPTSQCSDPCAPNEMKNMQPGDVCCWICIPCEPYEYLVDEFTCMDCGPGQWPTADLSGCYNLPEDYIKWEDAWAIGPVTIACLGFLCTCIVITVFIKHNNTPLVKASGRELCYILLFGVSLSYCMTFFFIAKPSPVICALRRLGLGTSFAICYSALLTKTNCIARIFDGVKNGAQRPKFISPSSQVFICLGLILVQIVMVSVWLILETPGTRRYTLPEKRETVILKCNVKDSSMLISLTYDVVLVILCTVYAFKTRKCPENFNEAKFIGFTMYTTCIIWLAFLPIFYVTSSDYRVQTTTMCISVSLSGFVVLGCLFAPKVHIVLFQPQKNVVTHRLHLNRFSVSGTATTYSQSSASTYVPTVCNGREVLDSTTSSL
Chain of NAALADase (P70627 whole entry): as the sequence (P70627 whole entry) above

Compound: 2-(phosphomethyl)pentanedioic acid [PMPA, reference compound]
- mGluR3 activity (in words) [1]: act as an agonist at mGluR3
- Neuroprotection against NMDA toxicity ([2]; NMDA 20 μM): about 25%
- Neuroprotection (in words) ([2]; model C, compared with FN6 enantiomers): less effective
- Glutamate and NAAG levels (in words) ([3]; rat MCAO model): decreased glutamate levels while increasing NAAG levels
- Protection against injury (in words) ([3]; rats, Slusher et al.): significant protection against injury
- Neuroprotection against NMDA-induced cell death [4]: 16%

Compound: N[C@@H](CC(=O)O)C(=O)N[C@@H](CC(=O)O)C(=O)O [(S)-Asp-(S)-Asp, reference compound] (H-Asp-Asp-OH)
- inhibition of GCPII ([7]; at 100 μM, dipeptide, published data for comparison): 42% inhibition at 100 μM
- IC50 ([7]; published data, ref. 6a): 58000 nM

Compound: O=C(NC(CS)C(=O)O)NC(CS)C(=O)O [(S)-Cys-C(O)-(S)-Cys]
- GCPII inhibitory activity (in words) ([9]; tested at 1 μM): Inactive at 1 μM

Compound: N[C@@H](CCC(=O)O)C(=O)N[C@@H](CCC(=O)O)C(=O)O [(S)-Glu-(S)-Glu, reference compound] (H-Glu-Glu-OH)
- fold less potent than (S)Glu-C(O)-(S)Glu at GCPII [9]: 16 fold

Compound: O=C(O)CC[C@H](NC(=O)C(=O)N[C@@H](CCC(=O)O)C(=O)O)C(=O)O [(S)-Glu-C(O)-C(O)-(S)-Glu]
- GCPII inhibitory activity (in words) [9]: inactive
- inhibition of expressed rat GCPII ([9]; at 1 μM): 9% inbibition at 1 μM

Compound: NC1(C(=O)O)CC2CC1C2C(=O)O (stereo not shown) [ABHxD-I, 2-aminobicyclo 2.1.1 hexahe-2.5-dicarboxylic acid, reference compound]
- Protection against NMDA toxicity (in words) [10]: not able to protect against NMDA toxicity
- Reduction of the toxic effect of NMDA ([6]; 10 μM, NMDA 75 μM): over 40%
- Protection against NMDA toxicity (in words) ([2]; model C, 10 μM, NMDA 20 μM): as effective as in model B

Compound: O=C(O)CCC(CC(=O)CC(CCC(=O)O)C(=O)O)C(=O)O (stereo not shown) [A]
- mGluR3 activity (in words) [1]: retained significant mGluR3 activity

Compound: O=C(O)CC[C@H](NC(=O)N[C@@H](CCC(=O)O)C(=O)O)C(=O)O [FN11]
- IC50 [9]: 47 nM
- Vascularization of tumor (von Willebrand's factor staining) [11]: preponderance of avascular and low vascular areas

Compound: O=C(O)CC[C@@H](NC(=O)N[C@H](CCC(=O)O)C(=O)O)C(=O)O [FN13]
- Neuroprotection ([2]; model C, 100 μM): about 20%

Compound: O=C(O)CC[C@H](NC(=O)N[C@H](CCC(=O)O)C(=O)O)C(=O)O [FN16]
- inhibition at 100 µM ([9]; read-out: inhibition of expressed rat GCPII): 97%

Compound: CC(=O)N[C@@H](CC(=O)O)C(=O)N[C@@H](CCC(=O)O)C(=O)O [NAAG, N-acetyl-L-aspartate-L-glutamate, reference compound] (Ac-Asp-Glu-OH)
- EC50 ([8]; cell lines transfected with mGluR1-6, read-out: EC50 for activation of mGluR3): 65000 ± 20000 nM

Compound: O=C(O)CC[C@H](NC(=O)N[C@@H](CC(=O)O)C(=O)O)C(=O)O [PC107]
- IC50 ([9]; listed as (S)-Asp-C(O)-(S)-Glu): 46 nM and 46.1 nM

Compound: O=C(O)CC[C@H](NC(=O)N[C@@H](CS)C(=O)O)C(=O)O [PC118]
- GCPII inhibitory activity (in words) [9]: nearly as potent as (S)-Glu-C(O)-(S)-Glu
- IC50 [9]: 72.4 ± 6.5 nM
- Neuroprotection against NMDA toxicity ([2]; NMDA 20 μM): 50%

Now from value to compound, other results behind:

- melting point: > 142 °C
Compound: O=C(O)C[C@H](NC(=O)N[C@@H](CC(=O)O)C(=O)O)C(=O)O (hydrate or solvate) [PC103]

- melting point: 108 to 110 °C
Compound: CC(C)(C)NC(=O)N[C@@H](CCC(=O)O)C(=O)O (hydrate or solvate) [PC113]

- IC50 [5]: 4 nM
Compound: O=C(O)CCC(CP(=O)(O)CC(CCC(=O)O)C(=O)O)C(=O)O (racemic) [FN6, 4,4′-phosphinicobis(butane-1,3-dicarboxylic acid)]
- Neuroprotection ([6]; 300 μM): about 30%
- IC50 ([7]; previous work, listed as PBBDA): 21.7 ± 2.1 nM
- IC50 ([7]; previous work, listed as [HO2C(CH2)2CH(CO2H)CH2]2P(O)(OH)): 26 nM
- EC50 ([8]; previous work, read-out: mGluR3 selective agonist potency): ~30000 nM

- IC50 [9]: 3800 nM
Compound: O=C(O)C[C@H](NC(=O)N[C@@H](CC(=O)O)C(=O)O)C(=O)O [PC103]

- GCPII inhibitory activity (in words) [9]: inactive
- inhibition at 1 µM ([9]; at 1 μM): 46%
Compound: O=C(O)CC[C@H](NC(=O)NCC(=O)O)C(=O)O [PC108]

- GCPII inhibitory activity (in words) [9]: inactive
- inhibition at 1 µM ([9]; at 1 μM): 10%
Compound: CC(C)(C)NC(=O)N[C@@H](CCC(=O)O)C(=O)O [PC113]

- IC50 [9]: 101 ± 19.3 nM
- Ki ([9]; read-out: Ki against GCPII): ~100 nM
Compound: CC(C)(C)SC[C@H](NC(=O)N[C@@H](CCC(=O)O)C(=O)O)C(=O)O [PC120]
- Neuroprotection against NMDA toxicity ([2]; NMDA 20 μM): 69%
